# Data published in patent publication US20130316965A1, “IDRABI[…] THE TREATMENT OF PULMONARY EMBOLISM AND FOR THE SECONDARY PREVENTION OF VENOUS THRO[…]” (priority 2011, published 2013).
# Tests used:
# Format in all cases: in vivo, human
# [1] = system: patients with symptomatic pulmonary embolism with or without symptomatic deep venous thrombosis; experiment: CASSIOPEA (EFC6034) phase III clinical trial: symptomatic recurrent PE/DVT (efficacy); details: for Hazard ratio, symptomatic recurrent PE/DVT: idrabiotaparinux vs warfarin
# Procedure: Patients with confirmed symptomatic PE with or without acute symptomatic DVT are eligible for this trial. Treatment with a therapeutic dose of any LMWH or UFH or fondaparinux is allowed only within the 36 hours immediately preceding randomization. Randomization is performed as soon as the diagnosis of PE (and DVT if concomitant suspected symptomatic DVT) is confirmed.
# (§1) A blinded central and independent adjudication committee (CIAC) assesses PE (and DVT when applicable), all episodes of locally confirmed or doubtful PE/DVT recurrences, clinically relevant bleedings and deaths. Adjudication results are the basis for the final analyses.
# Patients in the 3-month stratum have an additional 13-week observational period after cessation of study treatment. Patients in the 6-month stratum have a 13-week up to 26-week observational period.
# Injections of SSR126517E (or its placebo) is started 12 h after the last post-randomization enoxaparin administration. SSR126517E (or its placebo) is administered s.c. once-weekly for a period of 3 or 6 months. All patients receive a first 0.5 ml injection (3.0 mg in the SSR126517E group). The following injections are also 0.5 ml, except in patients with severe renal insufficiency (defined as creatinine clearance <30 mL/min), who decrease to a dosage of 0.3 ml (1.8 mg in the SSR126517E group).
# The primary efficacy outcome is symptomatic recurrent PE/DVT (fatal or not), as validated by the CIAC, within 99 days for patients from both strata (3- and 6-month treatments).
# A secondary efficacy outcome for patients in the 6-month stratum is symptomatic recurrent PE/DVT, as validated by the CIAC, within 190 days.
# There are 2 additional efficacy outcomes: • the time to first symptomatic recurrent PE/DVT (fatal or non fatal) within the patient's treatment period, i.e. a combined analysis of the 3-and 6-month strata patients; • the separate components of the efficacy outcomes within 99 days (all patients) and within 190 days (6-month stratum patients only).
# The definitions to confirm a suspected symptomatic episode of recurrent PE/DVT are as follows:
# Efficacy analyses are performed on the—All-randomized—population (patients with a patient number and an allocated treatment number recorded in the IVRS database).
# The secondary efficacy outcome (VTE recurrence within 190 days) for patients in the 6-month stratum is analyzed using the same method and applying the same non-inferiority margin.
# Time to first symptomatic recurrent PE/DVT within the patient's study treatment period for all patients is analyzed using Cox's proportional hazards model, stratified on intended treatment duration.
# [2] = system: patients with symptomatic pulmonary embolism with or without symptomatic deep venous thrombosis; experiment: CASSIOPEA (EFC6034) phase III clinical trial: deaths; details: overall
# From the text: as §1
# [3] = system: patients with symptomatic pulmonary embolism with or without symptomatic deep venous thrombosis; experiment: CASSIOPEA (EFC6034) phase III clinical trial: clinically relevant bleeding (safety); details: for Hazard ratio, clinically relevant bleeding: idrabiotaparinux vs warfarin
# From the text: According to the instant invention, the term “bleedings” designates any clinically relevant bleeding (i.e. major or clinically relevant non-major hemorrhage).
# According to the instant invention, the term “major bleedings” designates any of the following clinical situations: • bleeding associated with a fall in hemoglobin of 2 g per deciliter or more, • bleeding that led to a transfusion of 2 or more units of packed red cells or whole blood (a red cell unit being defined as the quantity of red cells obtained from or corresponding to approximately 500 ml of whole blood), • bleeding that involved a critical organ (intracranial, intraocular, intraspinal, retroperitoneal or pericardial), • bleeding that contributed to death.
# as §1
# The principal safety outcome is any clinically relevant bleeding as classified by the CIAC (i.e. major bleeding and other clinically relevant non-major bleeding).
# Bleeding analyses are also performed on the—All-randomized—population. Other safety analyses are performed on the—All-treated—population.
# Rates of clinically relevant bleedings are calculated in each treatment group at 3 months (99 days) and 6 months (190 days) and compared between treatment groups using a Mantel-Haenszel chi-square stratified on intended treatment duration. Cumulative incidences of clinically relevant bleedings during the combined 3-month and 6-month period and up to the end of study are described by treatment group using the Kaplan Meier method.
# [4] = system: patients with symptomatic pulmonary embolism with or without symptomatic deep venous thrombosis; experiment: CASSIOPEA (EFC6034) phase III clinical trial: benefit-risk assessment (PE, DVT or major bleeding composite); details: Randomized population
# From the text: Tables 13 and 14 show the incidence of pulmonary embolism, deep venous thrombosis or major bleedings (composite endpoint) in the randomized population in the treatment phase (3-month or 6-month treatment with idrabiotaparinux) and up to the end of the study (assessment at 12 months).
# [5] = Randomized population in the 6-month stratum
# [6] = Randomized population, All patients
# [7] = Randomized population, Patients with VKA beyond D99/D190
# [8] = Randomized population, Patients with no VKA beyond D99/D190
# [9] = Randomized population, or death for which PE could not be ruled out
# [10] = combined 3-month and 6-month period
# [11] = combined 3-month and 6-month periods, time-to-event analysis (Kaplan-Meier)
# [12] = treatment period plus 3 to 6-month post-treatment follow-up (up to end of study)
# [13] = Cox proportional hazards model, stratified
structure (smiles),measurement,setting,value
"CO[C@H]1O[C@H](COS(=O)(=O)O)[C@@H](O[C@@H]2O[C@@H](C(=O)O)[C@@H](O[C@H]3O[C@H](COS(=O)(=O)O)[C@@H](O[C@@H]4O[C@H](C(=O)O)[C@@H](O[C@H]5O[C@H](COS(=O)(=O)O)[C@@H](OC)[C@H](OC)[C@H]5NC(=O)CCCCCNC(=O)CCCC[C@@H]5SC[C@@H]6NC(=O)N[C@@H]65)[C@H](OC)[C@H]4OC)[C@H](OS(=O)(=O)O)[C@H]3OS(=O)(=O)O)[C@H](OC)[C@H]2OC)[C@H](OS(=O)(=O)O)[C@H]1OS(=O)(=O)O [Idrabiotaparinux, idrabiotaparinux]",DVT only within 190 days from randomization: Patients with event,[1]; 6-month stratum,7 (0.6%) n (%)
same,Non-fatal PE within 190 days from randomization: Patients with event,[1]; 6-month stratum,9 (0.7%) n (%)
same,Symptomatic recurrent PE/DVT (fatal or not) from randomization to end of study: Patients with event,"[1]; 6-month stratum, All patients",37 (2.9%) n (%)
same,Symptomatic recurrent PE/DVT (fatal or not) from randomization to end of study: Patients with event,"[1]; 6-month stratum, Patients with VKA beyond D190",10 (3.2%) n (%)
same,Symptomatic recurrent PE/DVT (fatal or not) from randomization to end of study: Patients with event,"[1]; 6-month stratum, Patients with no VKA beyond D190",27 (2.8%) n (%)
same,Reducing the risk of symptomatic recurrent PE/DVT up to Day 190 (non-inferiority),"[1]; 6-month stratum, non-inferiority margin 2.0",at least as effective as warfarin
same,Fatal PE within 190 days from randomization: Patients with event,"[1]; 6-month stratum, or death for which PE could not be ruled out",13 (1.0%) n (%)
same,Patients who experienced DVT up to Day 190,"[1]; 6-month stratum, up to Day 190",0.6%
same,DVT only up to the end of study: Patients with event,[1]; Randomized population,10 (0.6%) n (%)
same,DVT only within 99 days from randomization: Patients with event,[1]; Randomized population,5 (0.3%) n (%)
same,Non-fatal PE up to the end of study: Patients with event,[1]; Randomized population,16 (1.0%) n (%)
same,Non-fatal PE within 99 days from randomization: Patients with event,[1]; Randomized population,13 (0.8%) n (%)
same,Symptomatic recurrent PE/DVT (fatal or not) within 190 days from randomization: Patients with event,[1]; [5],29 (2.3%) n (%)
same,Symptomatic recurrent PE/DVT within 190 days: Idrabiotaparinux vs. Warfarin odds ratio,[1]; [5],0.80
same,Symptomatic recurrent PE/DVT (fatal or not) from D100/D191 to end of study: Patients with event,[1]; [6],9 (0.6%) n (%)
same,Symptomatic recurrent PE/DVT (fatal or not) from randomization to end of study: Patients with event,[1]; [6],48 (3.0%) n (%)
same,Symptomatic recurrent PE/DVT within 99 days: Idrabiotaparinux vs. Warfarin odds ratio,"[1]; Randomized population, Mantel-Haenszel, stratified on intended treatment duration",0.79
same,Symptomatic recurrent PE/DVT (fatal or not) from D100/D191 to end of study: Patients with event,[1]; [7],4 (1.0%) n (%)
same,Symptomatic recurrent PE/DVT (fatal or not) from randomization to end of study: Patients with event,[1]; [7],12 (3.1%) n (%)
same,Symptomatic recurrent PE/DVT (fatal or not) from D100/D191 to end of study: Patients with event,[1]; [8],5 (0.5%) n (%)
same,Symptomatic recurrent PE/DVT (fatal or not) from randomization to end of study: Patients with event,[1]; [8],36 (3.0%) n (%)
same,Fatal PE up to the end of study: Patients with event,[1]; [9],22 (1.4%) n (%)
same,Fatal PE within 99 days from randomization: Patients with event,[1]; [9],16 (1.0%) n (%)
same,Symptomatic recurrent PE/DVT (fatal or not) within 99 days from randomization: Patients with event,"[1]; Randomized population, within 99 days",34 (2.1%) n (%)
same,Reducing the risk of symptomatic recurrent PE/DVT up to Day 99 (non-inferiority),"[1]; all randomized population, non-inferiority margin 2.0",at least as effective as warfarin
same,"Hazard ratio, symptomatic recurrent PE/DVT",[1]; [10],0.77
same,Cumulative incidence of symptomatic recurrent PE/DVT at Day 99,[1]; [11],2.2%
same,Cumulative incidence of symptomatic recurrent PE/DVT at Day 190,[1]; [11],2.6%
same,Cumulative incidence rate of symptomatic recurrent PE/DVT at Day 360,[1]; [12],3.1%
same,Patients who experienced DVT up to Day 99,[1]; up to Day 99,0.3%
same,Patients who experienced DVT up to the end of study,[1]; up to the end of study,0.6%
same,Patients who experienced non-fatal PE up to the end of study,[1]; up to the end of study,1.0%
same,"Hazard ratio, symptomatic recurrent PE/DVT",[1]; up to the end of the study,0.49
same,Risk reduction in the occurrence of symptomatic recurrent PE/DVT,"[1]; up to the end of the study, vs warfarin",51%
same,Patients who died on study,[2],5.9%
same,Any clinically relevant bleeding within 190 days: Idrabiotaparinux vs. Warfarin odds ratio,[3]; 6-month stratum,0.81
same,Clinically relevant bleedings up to Day 190,[3]; 6-month stratum,6.6%
same,Fatal bleeding within 190 days from randomization: Patients with event,[3]; 6-month stratum,7 (0.6%) n (%)
same,Fatal bleeding within 190 days: Idrabiotaparinux to Warfarin odds ratio (95% CI),[3]; 6-month stratum,1.40 (0.44 to 4.42)
same,Intracranial haemorrhage (fatal or not) within 190 days from randomization: Patients with event,[3]; 6-month stratum,8 (0.6%) n (%)
same,Intracranial haemorrhage (fatal or not) within 190 days: Idrabiotaparinux to Warfarin odds ratio (95% CI),[3]; 6-month stratum,1.33 (0.46 to 3.85)
same,Major bleeding within 190 days from randomization: Patients with event,[3]; 6-month stratum,24 (1.9%) n (%)
same,Major bleeding within 190 days: Idrabiotaparinux to Warfarin odds ratio (95% CI),[3]; 6-month stratum,0.66 (0.39 to 1.11)
same,Patients who experienced a major bleeding up to Day 190,[3]; 6-month stratum,1.9%
same,Any clinically relevant bleeding within 99 days from randomization: Patients with event,[3]; Randomized population,72 (4.5%) n (%)
same,Fatal bleeding within 99 days from randomization: Patients with event,[3]; Randomized population,3 (0.2%) n (%)
same,Fatal bleeding within 99 days: Idrabiotaparinux to Warfarin odds ratio (95% CI),[3]; Randomized population,0.50 (0.13 to 2.01)
same,Intracranial haemorrhage (fatal or not) within 99 days from randomization: Patients with event,[3]; Randomized population,4 (0.3%) n (%)
same,Intracranial haemorrhage (fatal or not) within 99 days: Idrabiotaparinux to Warfarin odds ratio (95% CI),[3]; Randomized population,0.57 (0.17 to 1.96)
same,Major bleeding within 99 days from randomization: Patients with event,[3]; Randomized population,20 (1.3%) n (%)
same,Major bleeding within 99 days: Idrabiotaparinux to Warfarin odds ratio (95% CI),[3]; Randomized population,0.51 (0.30 to 0.88)
same,Any clinically relevant bleeding within 190 days from randomization: Patients with event,[3]; [5],84 (6.6%) n (%)
same,Any clinically relevant bleeding within 99 days: Idrabiotaparinux vs. Warfarin odds ratio,"[3]; Randomized population, Mantel-Haenszel, stratified",0.67
same,Major bleeding within 99 days: Idrabiotaparinux to Warfarin odds ratio (95% CI),"[3]; Randomized population, listed as idrabiotaparinux",0.51
same,"Hazard ratio, clinically relevant bleeding",[3]; [10],0.70
same,Cumulative incidence of clinically relevant bleeding at Day 99,[3]; [11],4.6%
same,Cumulative incidence of clinically relevant bleeding at Day 190,[3]; [11],6.6%
same,Cumulative incidence rate of clinically relevant bleeding at Day 360,[3]; [12],8.3%
same,Incidence of clinically relevant bleeding up to Day 99,[3]; up to Day 99,4.5%
same,Patients who experienced a major bleeding up to Day 99,[3]; up to Day 99,1.3%
same,"Hazard ratio, clinically relevant bleeding",[3]; up to the end of study,0.79
same,"PE, DVT or major bleeding in the combined 3-month and 6-month period: Idrabiotaparinux vs. Warfarin Odds ratio",[4]; [13],0.66
same,"PE, DVT or major bleeding up to the end of study: Idrabiotaparinux vs. Warfarin Odds ratio",[4]; [13],0.54
same,"PE, DVT or major bleeding in the combined 3-month and 6-month period: Patients with event",[4]; composite endpoint,65 (4.1%) n (%)
same,"PE, DVT or major bleeding up to the end of study: Patients with event",[4]; composite endpoint,82 (5.1%) n (%)
